From US8846704B2, “Thiopyrimidine-based compounds and uses thereof” (YM Biosciences Austraila Pty Ltd, priority 2007, dated 2014)

Assays:
Blk(m) = biological target: T1, Blk(m) (Mus musculus, UniProt P16277); experiment: Upstate KinaseProfiler enzyme assay, Blk; format: biochemical; conditions: 500 nM compound; read-out: Percent inhibition at 500 nM Blk(m)
T1 construct: purchased Upstate Biotechnology (Dundee, UK), KinaseProfiler service
Description: (§1) Further enzyme assays were conducted at Upstate Biotechnology (Dundee, UK) in the KinaseProfiler™ Assay system.
(§2) The general protocol is as follows. All kinases are pre-diluted to a 10× working concentration prior to addition into the assay. The composition of the dilution buffer for the kinases is 20 mM MOPS pH 7.0, 1 mM EDTA, 0.1% β-mercaptoethanol, 0.01% Brij-35, 5% glycerol, 1 mg/ml BSA. All substrates are dissolved and diluted to working stocks in de-ionised water.

Bmx(h) = biological target: T2, Bmx(h) (Homo sapiens, UniProt P51813); experiment: Upstate KinaseProfiler enzyme assay, Bmx; format: biochemical; conditions: 500 nM compound; read-out: Percent inhibition at 500 nM Bmx(h)
T2 construct: purchased Upstate Biotechnology (Dundee, UK), KinaseProfiler service
T2 sequence (P51813 1-675): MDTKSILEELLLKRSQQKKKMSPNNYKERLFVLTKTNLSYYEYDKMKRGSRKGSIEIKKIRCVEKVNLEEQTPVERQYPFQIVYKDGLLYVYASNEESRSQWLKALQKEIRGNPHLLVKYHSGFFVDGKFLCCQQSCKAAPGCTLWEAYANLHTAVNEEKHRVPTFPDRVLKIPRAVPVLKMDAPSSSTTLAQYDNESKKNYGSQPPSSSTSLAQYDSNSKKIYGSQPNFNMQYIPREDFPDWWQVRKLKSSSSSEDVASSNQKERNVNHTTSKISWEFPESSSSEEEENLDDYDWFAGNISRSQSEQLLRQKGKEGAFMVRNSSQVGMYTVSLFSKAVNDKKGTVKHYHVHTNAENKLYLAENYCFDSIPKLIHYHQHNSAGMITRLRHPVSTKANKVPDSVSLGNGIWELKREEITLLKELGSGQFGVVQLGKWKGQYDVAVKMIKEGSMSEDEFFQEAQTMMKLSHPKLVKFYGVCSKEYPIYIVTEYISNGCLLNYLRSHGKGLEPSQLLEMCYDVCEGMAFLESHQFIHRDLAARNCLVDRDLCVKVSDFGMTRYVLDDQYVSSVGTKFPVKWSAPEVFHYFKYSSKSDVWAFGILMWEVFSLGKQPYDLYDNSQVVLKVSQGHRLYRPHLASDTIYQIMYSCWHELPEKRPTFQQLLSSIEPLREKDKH
Description: as §1, §2

BTK(h) = biological target: T3, BTK(h) (Homo sapiens, UniProt Q06187); experiment: Upstate KinaseProfiler enzyme assay, BTK; format: biochemical; conditions: 500 nM compound; read-out: Percent inhibition at 500 nM BTK(h)
T3 construct: purchased Upstate Biotechnology (Dundee, UK), KinaseProfiler service
T3 sequence (Q06187 whole entry): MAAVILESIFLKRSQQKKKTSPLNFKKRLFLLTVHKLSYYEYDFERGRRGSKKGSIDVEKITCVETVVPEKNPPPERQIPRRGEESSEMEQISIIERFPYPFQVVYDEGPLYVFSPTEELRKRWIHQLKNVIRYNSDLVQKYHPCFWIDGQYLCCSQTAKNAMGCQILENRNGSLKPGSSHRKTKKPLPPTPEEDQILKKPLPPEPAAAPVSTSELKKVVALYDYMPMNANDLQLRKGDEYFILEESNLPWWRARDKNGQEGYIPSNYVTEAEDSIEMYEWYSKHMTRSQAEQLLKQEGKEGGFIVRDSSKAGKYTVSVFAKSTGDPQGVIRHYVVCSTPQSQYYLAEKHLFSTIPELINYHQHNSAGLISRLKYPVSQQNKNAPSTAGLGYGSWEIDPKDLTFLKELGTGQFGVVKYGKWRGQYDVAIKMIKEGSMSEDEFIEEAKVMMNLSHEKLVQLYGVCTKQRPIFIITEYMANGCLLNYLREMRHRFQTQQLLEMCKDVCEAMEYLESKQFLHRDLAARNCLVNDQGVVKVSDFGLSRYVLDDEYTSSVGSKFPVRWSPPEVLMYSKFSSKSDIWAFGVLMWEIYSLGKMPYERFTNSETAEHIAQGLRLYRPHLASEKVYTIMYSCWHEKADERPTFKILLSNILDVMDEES
Description: as §1, §2

KDR(h) = biological target: T4, KDR(h) (Homo sapiens, UniProt P35968); experiment: Upstate KinaseProfiler enzyme assay, KDR; format: biochemical; conditions: 500 nM compound; read-out: Percent inhibition at 500 nM KDR(h)
T4 construct: purchased Upstate Biotechnology (Dundee, UK), KinaseProfiler service
T4 sequence (P35968 20-1356): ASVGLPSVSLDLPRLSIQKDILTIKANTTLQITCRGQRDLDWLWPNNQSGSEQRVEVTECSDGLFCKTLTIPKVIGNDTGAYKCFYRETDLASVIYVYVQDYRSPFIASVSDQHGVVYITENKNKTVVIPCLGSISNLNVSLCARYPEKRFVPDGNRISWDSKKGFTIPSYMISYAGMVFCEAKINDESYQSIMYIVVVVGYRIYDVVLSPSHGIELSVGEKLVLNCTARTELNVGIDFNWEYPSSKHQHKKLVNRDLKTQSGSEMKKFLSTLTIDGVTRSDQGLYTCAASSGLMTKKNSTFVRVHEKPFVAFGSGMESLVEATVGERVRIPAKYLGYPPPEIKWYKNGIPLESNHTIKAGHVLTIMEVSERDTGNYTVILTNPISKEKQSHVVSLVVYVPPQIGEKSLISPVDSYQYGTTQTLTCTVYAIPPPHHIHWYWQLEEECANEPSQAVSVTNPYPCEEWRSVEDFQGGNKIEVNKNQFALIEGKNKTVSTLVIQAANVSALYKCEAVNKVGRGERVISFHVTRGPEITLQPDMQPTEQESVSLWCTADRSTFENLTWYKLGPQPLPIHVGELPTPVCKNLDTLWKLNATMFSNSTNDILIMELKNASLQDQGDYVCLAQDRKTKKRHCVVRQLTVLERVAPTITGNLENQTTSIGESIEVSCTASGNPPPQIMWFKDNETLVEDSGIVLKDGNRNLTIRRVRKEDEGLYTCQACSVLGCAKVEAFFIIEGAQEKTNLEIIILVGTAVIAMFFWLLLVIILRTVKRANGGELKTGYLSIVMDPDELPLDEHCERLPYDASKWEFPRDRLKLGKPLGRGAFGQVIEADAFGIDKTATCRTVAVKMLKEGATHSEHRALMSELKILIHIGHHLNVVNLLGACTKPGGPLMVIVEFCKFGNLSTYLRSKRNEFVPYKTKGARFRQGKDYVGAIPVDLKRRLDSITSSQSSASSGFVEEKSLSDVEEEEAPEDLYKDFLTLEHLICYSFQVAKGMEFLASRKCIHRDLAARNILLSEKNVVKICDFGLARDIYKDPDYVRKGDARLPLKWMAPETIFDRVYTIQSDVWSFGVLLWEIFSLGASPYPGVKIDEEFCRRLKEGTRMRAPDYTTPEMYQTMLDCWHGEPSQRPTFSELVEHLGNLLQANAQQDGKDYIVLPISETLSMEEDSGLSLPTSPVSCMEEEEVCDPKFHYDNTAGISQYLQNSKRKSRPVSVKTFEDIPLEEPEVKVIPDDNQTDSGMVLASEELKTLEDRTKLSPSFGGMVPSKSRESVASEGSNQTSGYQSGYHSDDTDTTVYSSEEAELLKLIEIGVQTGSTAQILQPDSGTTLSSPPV
Description: as §1, §2

human JAK1 = biological target: T5, human JAK1 (Homo sapiens, UniProt P23458); experiment: Alphascreen tyrosine kinase enzyme assay, JAK1 kinase domain; format: biochemical; conditions: read-out: JAK1 IC50_nM
T5 construct: The kinase domain of human JAK1 was amplified; GST (N); made in house; host or cells: Sf9 insect cells (baculovirus)
T5 sequence (P23458 875-1153 limits assumed): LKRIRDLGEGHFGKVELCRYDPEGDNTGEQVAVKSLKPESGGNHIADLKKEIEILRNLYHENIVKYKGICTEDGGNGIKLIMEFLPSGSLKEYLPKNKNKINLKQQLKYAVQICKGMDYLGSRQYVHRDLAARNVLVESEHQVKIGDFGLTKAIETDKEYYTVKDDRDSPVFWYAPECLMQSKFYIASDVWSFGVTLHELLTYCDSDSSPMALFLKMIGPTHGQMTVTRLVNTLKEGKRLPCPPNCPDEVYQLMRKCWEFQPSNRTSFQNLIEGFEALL
Description: (§3) For screening purposes, compounds (in 100% DMSO) were warmed at 37 degrees for at least 20 minutes before use. A […] stock was initially made in assay buffer, where the final concentration of DMSO was 0.3%. The stocks were then diluted in 384 well Optiplates (Packard) where the final concentration of the compound was […].
The kinase domain of human JAK1 was amplified from U937mRNA using the polymerase chain reaction with the following primers: […]
The JAK1 PCR products were cloned into the pDest20 destination vector (Gibco). The JAK1 plasmid was then transformed into competent DH10Bac cells (Gibco), and the recombinant baculovirus was prepared via Sf9 insect cell transfection.
(§4) Baculovirus preparations from each of the constructs were infected into either one or five liters of Sf9 cells (Invitrogen) grown in SF-900 medium (Invitrogen) to a cell density of approximately 1-2×10^6 cells/ml. Cells were infected with virus at a MOI of 0.8-3.0. Cells were harvested and lysed. Tyrosine kinase domains were purified by affinity chromatography on a glutathione-agarose column (Scientifix Pty. Ltd. catalog #: GSH-200).
(§5) Kinase assays were performed in 384 well Optiplates (Packard) using an Alphascreen Protein Tyrosine Kinase PY100 detection kit The compounds were pre-incubated with affinity purified PTK domain in the presence of phosphotyrosine assay buffer (10 mM HEPES, pH 7.5, 100 mM MgCl2, 25 mM NaCl, […] and 0.1% Tween 20) for 20 minutes. The compounds were then incubated with substrate in the presence of ATP. The substrate used was susbtrate-1 with the sequence biotin-EGPWLEEEEEAYGWMDF-NH2 [SEQ. ID. NO. 13] (final concentration […]). For HCK 80 μm ATP was used and incubated for 60 minutes. Alphascreen phosphotyrosine acceptor beads followed by streptavidin donor beads at a concentration of 1/100 in stop buffer were added to each well under subdued light and incubated for 2-3 hours., The Alphascreen plates were read on a Packard Fusion Alpha instrument.

human JAK2 = biological target: T6, human JAK2 (Homo sapiens, UniProt O60674); experiment: Alphascreen tyrosine kinase enzyme assay, JAK2 kinase domain; format: biochemical; conditions: read-out: JAK2 IC50_nM
T6 construct: The kinase domain of human JAK2 was amplified; GST (N); made in house; host or cells: Sf9 insect cells (baculovirus)
T6 sequence (O60674 849-1124 limits assumed): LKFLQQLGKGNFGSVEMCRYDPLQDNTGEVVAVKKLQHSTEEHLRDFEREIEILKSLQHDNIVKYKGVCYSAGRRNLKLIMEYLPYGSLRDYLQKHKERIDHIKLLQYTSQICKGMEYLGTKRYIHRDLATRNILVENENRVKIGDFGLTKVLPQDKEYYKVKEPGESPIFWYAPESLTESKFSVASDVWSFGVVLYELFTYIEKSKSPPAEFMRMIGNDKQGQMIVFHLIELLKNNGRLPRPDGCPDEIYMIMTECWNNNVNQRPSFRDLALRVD
Description: as §3
The kinase domain of human JAK2 was amplified from U937mRNA using the polymerase chain reaction with the following primers: […]
The JAK2 PCR products were cloned into the pDest20 destination vector (Gibco). The JAK2 plasmid was then transformed into competent DH10Bac cells (Gibco), and the recombinant baculovirus was prepared via Sf9 insect cell transfection.
as §4, §5

human JAK3 = biological target: T7, human JAK3 (Homo sapiens, UniProt P52333); experiment: Alphascreen tyrosine kinase enzyme assay, JAK3 kinase domain; format: biochemical; conditions: read-out: JAK3 IC50_nM
T7 construct: The kinase domain of human JAK3 was amplified; GST (N); made in house; host or cells: Sf9 insect cells (baculovirus)
T7 sequence (P52333 822-1111 limits assumed): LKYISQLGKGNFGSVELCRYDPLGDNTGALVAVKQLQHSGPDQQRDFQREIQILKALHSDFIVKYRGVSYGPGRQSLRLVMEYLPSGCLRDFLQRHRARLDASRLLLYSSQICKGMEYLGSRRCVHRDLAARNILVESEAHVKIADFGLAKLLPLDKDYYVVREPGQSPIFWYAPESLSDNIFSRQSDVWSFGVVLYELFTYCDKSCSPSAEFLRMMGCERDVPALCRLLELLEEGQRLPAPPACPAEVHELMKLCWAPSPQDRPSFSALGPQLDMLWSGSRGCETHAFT
Description: as §3
The kinase domain of human JAK3 was amplified from U937mRNA using the polymerase chain reaction with the following primers: […]
The JAK3 PCR products were cloned into the pDest20 destination expression vector (Gibco). The JAK3 plasmid was then transformed into competent DH10Bac cells (Gibco), and the recombinant baculovirus was prepared via Sf9 insect cell transfection.
as §4, §5

CTLL2 = experiment: Cellular screening, CTLL2 cells, Alamar Blue; format: cell-based; conditions: Mus musculus, CTLL-2, read-out: CTLL2 IC50_nM
Description: (§6) Cell suspensions were prepared by harvesting cells from culture (the cells used in this test were in late log phase growth with high viability.) Cells were diluted in the appropriate growth medium, as described above, to 1.1× final concentration (from 50,000 cell/mL to 200,000 cell/mL, depending on cell line).
(§7) Compounds to be tested were added (10 μL, 10× final concentration) to a flat bottomed 96-well plate. The cellular suspension (90 μL per well) was then added, and the plate incubated for 40 hr at 37° C., 5% CO2. Alamar Blue 10 μL per well was added and the plates returned to the incubator for a further 4-6 hours. The plates were then read at 544 nm.

BaF3 wild-type cells = experiment: Cellular screening, BaF3 wild-type cells, Alamar Blue; format: cell-based; conditions: Mus musculus, 40 hr, read-out: BAF3wt IC50_nM
Description: (§8) For screening purposes, compounds were diluted in 96 well plates at a concentration of 20 μM. Plates were warmed at 37° C. for 30 minutes before the assay was performed.
(§9) The growth factor dependant myelomonocytic cell line BaF3 bearing the pTET-off plasmid (Clontech) was transfected with either pTELJAK2 or pTELJAK3, and the transfected cells were selected for growth-factor independent cell growth. The BaF3 wild-type cells were cultured in DMEM containing 10% FCS, 10% WEHI 3B conditioned medium. The BaF3 TELJAK cells ([…]) were cultured in DMEM 10% Tet-System Approved FBS (without WEHI 3B conditioned medium).
as §6, §7

[1] = biological target: T8, BaF3 TELJAK2 cells (BafT_J2) (Homo sapiens, UniProt O60674); experiment: Cellular screening, BaF3 TEL:JAK2 cells, Alamar Blue; format: cell-based; conditions: 40 hr, read-out: BafT_J2 IC50_nM
T8 construct: fused on or other part: TEL (ETV6) N-terminal part, coding nucleotides 1-487, serves as the oligomerising partner; It is fused through a Sal I site to the JAK2 kinase domain and expressed from pTRE2 in BaF3 cells bearing pTET-off; P41212 (Transcription factor ETV6)
T8 sequence (O60674 whole entry, change not shown, the tested form may be a part): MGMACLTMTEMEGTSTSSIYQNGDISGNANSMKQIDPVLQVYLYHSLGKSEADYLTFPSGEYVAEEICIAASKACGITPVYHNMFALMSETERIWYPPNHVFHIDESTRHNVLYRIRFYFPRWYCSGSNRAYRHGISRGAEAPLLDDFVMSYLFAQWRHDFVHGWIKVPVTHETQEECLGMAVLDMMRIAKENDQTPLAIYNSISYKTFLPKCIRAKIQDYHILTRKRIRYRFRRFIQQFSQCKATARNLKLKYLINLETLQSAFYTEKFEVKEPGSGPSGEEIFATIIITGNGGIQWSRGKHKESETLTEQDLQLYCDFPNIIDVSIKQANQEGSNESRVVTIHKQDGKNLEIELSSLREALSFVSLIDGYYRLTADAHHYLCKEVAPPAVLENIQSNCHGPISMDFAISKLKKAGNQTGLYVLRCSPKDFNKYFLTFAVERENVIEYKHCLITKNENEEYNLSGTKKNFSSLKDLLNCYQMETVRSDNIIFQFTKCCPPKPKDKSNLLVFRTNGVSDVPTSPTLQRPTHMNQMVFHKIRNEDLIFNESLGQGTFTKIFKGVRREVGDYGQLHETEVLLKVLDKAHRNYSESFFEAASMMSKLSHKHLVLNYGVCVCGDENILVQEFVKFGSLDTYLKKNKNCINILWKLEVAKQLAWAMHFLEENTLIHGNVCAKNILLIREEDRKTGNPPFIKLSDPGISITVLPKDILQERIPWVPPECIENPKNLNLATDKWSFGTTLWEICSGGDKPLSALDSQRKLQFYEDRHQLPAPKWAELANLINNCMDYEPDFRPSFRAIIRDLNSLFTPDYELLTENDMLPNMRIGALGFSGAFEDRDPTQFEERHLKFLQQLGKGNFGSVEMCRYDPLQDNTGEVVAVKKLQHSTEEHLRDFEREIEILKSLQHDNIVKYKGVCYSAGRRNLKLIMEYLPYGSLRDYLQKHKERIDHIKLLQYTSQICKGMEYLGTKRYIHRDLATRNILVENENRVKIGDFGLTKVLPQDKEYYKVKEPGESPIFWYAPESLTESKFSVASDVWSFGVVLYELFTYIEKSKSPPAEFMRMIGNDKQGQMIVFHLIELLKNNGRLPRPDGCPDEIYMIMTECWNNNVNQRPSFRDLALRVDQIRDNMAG
Description: as §8
The coding region encompassing nucleotides 1-487 of TEL was amplified by PCR using the oligonucleotides STEL (5′-GGAGGATCCTGATCTCTCTCGCTGTGAGAC-3′) [SEQ ID NO 14] and 3TEL (5′-AGGC GTCGACTTCTTCTTCATGGTTCTG-3′) [SEQ ID NO 15] and U937 mRNA as a template. A […] restriction site was incorporated into the STEL primer, and a Sal I restriction site was incorporated into the 3TEL primer. The regions encompassing the kinase domain of JAK2 (nucleotides 2994-3914; JAK2F 5′-ACGC GTCGACGGTGCCTTTGAAGACCGGGAT-3′ [SEQ ID NO 16]; JAK2R 5′-ATAGTTTAGCGGCCGCTCAGAATGAAGGTCATTT-3′) [SEQ ID NO 17] and JAK3 (nucleotides 2520-3469; JAK3F 5′-GAAGTCGACTATGCCTGCCAAGACCCCACGATCTT-3′) [SEQ ID NO 18] were generated by PCR using Taq DNA polymerase (Gibco/BRL) and […] as a template. A Sal I restriction site was incorporated into the forward primer of JAK2 and JAK3, a Not I site was incorporated into the JAK2 reverse primer and a Xba I site was added to the reverse primer of JAK3.
A TEL/Jak2 fusion was generated by digestion of the TELPCR product with BamH I/Sal I restriction enzymes, digestion of the JAK2 PCR product with Sal I/Not I restriction enzymes, followed by ligation and subcloning of the ligation product into the mammalian expression Vector pTRE 2 (Clontech), which was prepared by digestion with BamH I-Not I restriction enzymes, to give the TEL/Jak2 fusion plasmid pTELJAK2.
as §9, §6, §7

T1 sequence (P16277 whole entry): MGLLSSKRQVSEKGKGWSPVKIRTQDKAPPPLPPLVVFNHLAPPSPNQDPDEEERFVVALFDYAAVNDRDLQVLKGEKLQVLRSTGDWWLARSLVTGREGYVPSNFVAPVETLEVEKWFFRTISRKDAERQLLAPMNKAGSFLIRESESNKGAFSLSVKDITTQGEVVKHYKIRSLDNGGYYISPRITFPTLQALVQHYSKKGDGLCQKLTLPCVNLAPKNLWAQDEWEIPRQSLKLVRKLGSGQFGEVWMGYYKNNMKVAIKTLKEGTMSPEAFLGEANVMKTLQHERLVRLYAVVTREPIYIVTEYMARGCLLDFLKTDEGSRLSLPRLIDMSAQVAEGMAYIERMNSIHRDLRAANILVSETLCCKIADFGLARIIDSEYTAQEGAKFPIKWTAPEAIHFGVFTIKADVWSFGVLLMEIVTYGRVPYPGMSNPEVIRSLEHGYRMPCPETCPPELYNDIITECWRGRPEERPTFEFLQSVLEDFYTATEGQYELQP

SMILES | inhibition at 0.5 µM (Blk(m)) [%] | inhibition at 0.5 µM (Bmx(h)) [%] | inhibition at 0.5 µM (BTK(h)) [%] | inhibition at 0.5 µM (KDR(h)) [%] | IC50 (human JAK1) [µM] | IC50 (human JAK2) [µM] | IC50 (human JAK3) [µM] | IC50 (CTLL2) [µM] | IC50 (BaF3 wild-type cells) [µM] | GI50 [1] [µM]
C=CC(=O)Nc1cccc(Sc2ccnc(Nc3cc(OC)c(OC)c(OC)c3)n2)c1 [Compound 51, N-(3-(2-(3,4,5-trimethoxyphenylamino)pyrimidin-4-ylthio)phenyl)acrylamide] | 29 | 100 | 100 | 100 |  |  |  |  |  | 
C=CC(=O)Nc1ccc(Sc2ccnc(Nc3cc(OC)c(OC)c(OC)c3)n2)cc1 [Compound 71, N-(4-(2-(3,4,5-trimethoxyphenylao)pyrimidin-4-ylthio)phenyl)acrylamide] | 49 | 36 | 27 | 90 |  |  |  |  |  | 
O=C(CCNc1ccccc1)Nc1ccc(Sc2ccnc(Nc3ccccc3)n2)cc1 [Compound 351, 3-(phenylao)-N-(4-(2-(phenylao)pyrimidin-4-ylthio)phenyl)propanamide] | 100 | 100 | 100 | 100 |  |  |  |  |  | 
Cc1cnc(Nc2ccc(N3CCOCC3)cc2)nc1Sc1ccc(N)c(C)c1Cl [Compound 169, 4-(4-ao-2-chloro-3-methylphenylthio)-5-methyl-N-(4-morpholinophenyl)pyrimidin-2-ae] |  |  |  |  | > 1 | > 1 | < 0.1 |  |  | 
C=CC(=O)Nc1cccc(Nc2nccc(Sc3ncccn3)n2)c1 [Compound 3, N-(3-(4-(pyrimidin-2-ylthio)pyrimidin-2-ylao)phenyl)acrylamide] |  |  |  |  | > 1 | > 1 | < 0.1 | < 5 |  | 
Cc1cnc(Nc2ccc(N3CCOCC3)cc2)nc1Sc1ccc(Cn2cnc(C#N)c2C#N)cc1 [Compound 221, 1-(4-(5-methyl-2-(4-morpholinophenylao)pyrimidin-4-ylthio)benzyl)-1H-imidazole-4,5-dicarbonitrile] |  |  |  |  |  | > 1 | < 0.5 | < 1 | < 1 | 
C=CC(=O)Nc1ccc(Sc2nc(Nc3ccc(N4CCOCC4)cc3)ncc2C)c(Cl)c1 [Compound 252, N-(3-chloro-4-(5-methyl-2-(4-morpholinophenylao)pyrimidin-4-ylthio)phenyl)acrylamide] |  |  |  |  |  | > 1 | < 0.1 | < 1 | > 20 | > 20
CC#CC(=O)Nc1cccc(Sc2ccnc(Nc3ccc(N4CCOCC4)cc3)n2)c1 [Compound 331, N-(3-(2-(4-morpholinophenylao)pyrimidin-4-ylthio)phenyl)but-2-ynamide] |  |  |  |  |  | > 1 | < 0.5 |  |  | 
C=CC(=O)Nc1ccc(Sc2ccnc(Nc3cccc(S(=O)(=O)NCCC(C)C)c3)n2)cc1 [Compound 363, N-(4-(2-(3-(N-isopentylsulfamoyl)phenylao)pyrimidin-4-ylthio)phenyl)acrylamide] |  |  |  |  |  | > 1 | < 0.1 |  |  | 
N#CCc1cn(Cc2ccc(Sc3ccnc(Nc4ccc(N5CCOCC5)cc4)n3)cc2)cn1 [Compound 90, 2-(1-(4-(2-(4-Morpholinophenylamino)pyrimidin-4-ylthio)benzyl)-1H-imidazol-4-yl)acetonitrile] |  |  |  |  |  | > 1 | < 0.5 | < 5 | < 20 | < 5
